Results: US20150011566A1, “N-PHENYLPIPERAZINE DERIVATIVES THAT ARE ANTAGONISTS OF A1A, A1D ADRENOCEPTORS AND 5-HT1A RECEPTORS FOR THE TREATMENT OF BENIGN PROSTATE HYPERPLASIA, PHARMACEUTICAL COMPOSITIONS CONTAINING THE SAME” (UNIVERSIDADE FEDERAL DO RIO DE JANEIRO-UFRJ, priority 2012, published 2015)
Where two headings read alike, the source gives them in different places.

Assays:
α1A adrenoceptors = target: T1, α1A adrenoceptors (Oryctolagus cuniculus, UniProt O02824); assay: Binding of [3H]-prazosin to α1A adrenoceptors (rabbit liver membranes)
T1 construct: from tissue; host or cells: rabbit liver membranes
T1 sequence (O02824 1-466): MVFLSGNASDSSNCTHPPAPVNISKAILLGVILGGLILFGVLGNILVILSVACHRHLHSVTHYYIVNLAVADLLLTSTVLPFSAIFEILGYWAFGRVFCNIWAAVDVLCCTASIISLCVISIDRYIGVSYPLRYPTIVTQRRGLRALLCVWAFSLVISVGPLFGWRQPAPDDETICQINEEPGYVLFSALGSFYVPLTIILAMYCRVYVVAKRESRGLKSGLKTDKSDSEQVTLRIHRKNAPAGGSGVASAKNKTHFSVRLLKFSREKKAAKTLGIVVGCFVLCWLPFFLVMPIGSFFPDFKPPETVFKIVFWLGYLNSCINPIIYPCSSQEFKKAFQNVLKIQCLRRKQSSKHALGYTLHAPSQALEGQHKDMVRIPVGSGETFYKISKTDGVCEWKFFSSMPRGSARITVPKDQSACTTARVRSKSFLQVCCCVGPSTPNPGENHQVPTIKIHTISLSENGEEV
Procedure: Following the protocol described previously in the literature, membrane preparations from rabbit liver homogenates were obtained. Such membrane preparations are enriched in adrenoceptor subtype α1A. The tissue obtained as described above (˜30 g) was naturally thawed, immersed in thawing solution (0.25 M sucrose, 1 mM EGTA and 5 mM Tris (pH 7.4)) freezing. Then, the tissue was transferred to a petri dish on ice containing solution for homogenizing liver (2 mM EDTA, 100 mM NaCl and 50 mM Tris (pH 7.4)) freezing. The liver was then carefully cut by ignoring the most fibrous part.
Then, the material was transferred into a beaker where with the aid of Ultra-Turrax homogenizer (speed 24,000 RPM), the tissue was homogenized with the same buffer solution at a ratio of 6 parts of the solution to 1 part material. The material was homogenized three times for 20 seconds; in the intervals the solution was allowed to stand for 1 minute on ice. Subsequently, the homogenate was subjected to centrifugation 10,000×g for 10 minutes at 4° C., yielding a supernatant which was subjected to ultracentrifugation 80,000×g for 40 minutes at 4° C. yielding a pellet. This pellet was resuspended in buffer solution without NaCl (1 mM EDTA and 50 mM Tris (pH 7.4)) and further subjected to ultracentrifugation in the same previous conditions. The pellet obtained was resuspended in this step storage solution (0.25 M sucrose, 1 mM EGTA and 5 mM Tris (pH 7.4)) with the aid of a manual type Dounce homogenizer and stored in aliquots at 300 μL liquid nitrogen. In all protocols for membrane preparations the dosage of protein were performed according to the method of LOWRY et al. (J. Biol. Chem. 193 (1):265-275, 1951).
The standardization of the assay was done as described in the literature. […] Assays were performed in triplicate.
In both assays, membrane preparations were incubated at 0° C. for 45 minutes. After the incubation period, the reaction was stopped by adding 4 mL of ice-cold wash buffer (50 mM Tris-HCl, pH 7.4) followed by rapid vacuum filtration on glass fiber filter (GMF 3 Filtrak®). The filters were washed four times with 4 ml of the same solution under vacuum to remove all free radioligand. Then the filters were dried and placed in vials containing 5 ml scintillation fluid (4% PPO, 0.1% POPOP w/v in toluene). The radioactivity retained on the filters was then determined in a liquid scintillation counter (Packard Tri-Carb 1600 TR).
This procedure aims to obtain a saturation curve with less expenditure of radioactive substances and biological materials. Since competition assays allow us to construct inhibition curves of specific binding of radioligand. The higher the concentration of competitor agent employed in this case the LDT's study, the greater the competition for specific receptors, decreasing the formation radioligand-receptor complex. This can be seen by the gradual decrease of radioactivity retained on the filters is detected by the counter liquid scintillation.
These values were converted to Ki values (competitive dissociation constant at equilibrium or inhibition constant) using the Cheng-Prusoff equation (Eq. 2).

α1B adrenoceptors = target: T2, α1B adrenoceptors (Rattus norvegicus, UniProt P15823); assay: Binding of [3H]-prazosin to α1B adrenoceptors (rat liver membranes); settings: for affinity range for α1B adrenoceptor: in words
T2 construct: from tissue; host or cells: rat liver membranes
T2 sequence (P15823 1-515): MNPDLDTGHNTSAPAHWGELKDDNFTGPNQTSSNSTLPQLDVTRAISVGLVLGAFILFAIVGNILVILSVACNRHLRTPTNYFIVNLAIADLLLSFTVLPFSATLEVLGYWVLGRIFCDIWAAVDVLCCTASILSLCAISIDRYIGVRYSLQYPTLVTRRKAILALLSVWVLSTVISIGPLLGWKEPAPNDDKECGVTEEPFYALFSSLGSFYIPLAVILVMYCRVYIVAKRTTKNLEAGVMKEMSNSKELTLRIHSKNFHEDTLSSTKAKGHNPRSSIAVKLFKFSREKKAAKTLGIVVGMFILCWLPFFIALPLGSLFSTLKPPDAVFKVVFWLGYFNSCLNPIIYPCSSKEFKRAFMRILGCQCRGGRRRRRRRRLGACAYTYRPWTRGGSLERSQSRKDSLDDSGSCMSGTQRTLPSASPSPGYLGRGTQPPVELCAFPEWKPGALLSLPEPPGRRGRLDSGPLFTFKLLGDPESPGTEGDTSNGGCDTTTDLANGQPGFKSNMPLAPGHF
Procedure: Following the protocol described previously in the literature membrane preparations from rat liver homogenates were obtained. Such membrane preparations are enriched in the adrenoceptor subtype α1B. The tissues obtained as described above (4 Rat livers corresponding to ˜30 g) were thawed and homogenized perforated similarly performed for rabbit liver. The homogenate obtained was filtered through four layers of gauze and then subjected to centrifugation 5,000×g for 20 minutes at 4° C., yielding a supernatant which was subsequently ultracentrifuged at 100,000×g for 60 minutes at 4° C., obtaining a pellet. This pellet was resuspended in buffer free of NaCl and subjected to a further […] under the same conditions.
Binding assays were standardized for α1B adrenoceptors in the same way adrenoceptor binding assays for α1A according to the literature, i.e. saturation and competition assays were performed on membrane preparations from rat liver, in this case using […] protein per tube contained […] suspension, in addition to various concentrations of LDT's (10^−9-10^−6 M).

[1] = Table 5, Cheng-Prusoff, read-out: α1A Ki
[2] = Table 5, Cheng-Prusoff, read-out: α1B Ki
[3] = Table 4, Cheng-Prusoff, read-out: Ki
[4] = Table 4, read-out: log CI50 ± EPM (converted)

| Structure (SMILES) | α1A log IC50 (M) (α1A adrenoceptors; Table 5) | Ki (α1A adrenoceptors; [1]) [M] | α1B log IC50 (M) (α1B adrenoceptors; Table 5) | Ki (α1B adrenoceptors; [2]) [nM] | IC50 (α1A adrenoceptors) [M] | Ki (α1A adrenoceptors) [M] | IC50 (α1B adrenoceptors) [nM] | Ki (α1B adrenoceptors) [nM] | also measured |
| --- | --- | --- | --- | --- | --- | --- | --- | --- | --- |
| CCCCCCCN1CCN(c2ccccc2OC)CC1 [LDT 67] | −7.02 ± 0.12 a M | 8.1e-08 | −6.87 ± 0.10 | 113 | – | – | – | – | – |
| COc1ccc(CCN2CCN(c3ccccc3OC)CC2)cc1OC [LDT 5] | – | – | – | – | 4.47e-09 | 3.67e-09 | – | – | Ki (α1B adrenoceptors; [3]): 12.2 nM; IC50 (α1B adrenoceptors; [4]): 15.8 nM |
| COc1ccccc1N1CCN(CCC2CCCCC2)CC1 [LDT 6] | – | – | – | – | – | – | – | – | Ki (α1A adrenoceptors; Table 3, Cheng-Prusoff, read-out: Ki (M) High Affinity site): 2.16e-09 M; IC50 (α1A adrenoceptors; read-out: log CI50 ± EPM (M) High Affinity site (converted)): 2.63e-09 M; Ki (α1B adrenoceptors; [3]): 154 nM; IC50 (α1B adrenoceptors; [4]): 200 nM; affinity range for α1B adrenoceptor (α1B adrenoceptors): range μM |
| CCCN1CCN(c2ccccc2OC)CC1 [LDT 63] | −6.50 ± 0.08 M | 2.7e-07 | −6.22 ± 0.05 | 511 | – | – | – | – | – |
| COc1cccc(CCN2CCN(c3ccccc3OC)CC2)c1 [LDT 3] | – | – | – | – | 5.62e-09 | 4.63e-09 | 95.5 | 73.7 | – |
| CCCCCN1CCN(c2ccccc2OC)CC1 [LDT 65] | – | – | – | – | 7.94e-08 | 6.7e-08 | 331 | 277 | – |
| CCN1CCN(c2ccccc2O)CC1 [LDT 70] | −6.45 ± 0.07 M | 3.04e-07 | −6.07 ± 0.10 | 715 | – | – | – | – | – |
| CCOc1ccccc1N1CCN(CCc2ccc3c(c2)OCO3)CC1 [LDT 8] | – | – | – | – | 4.57e-09 | 3.76e-09 | 11.7 | 9.07 | affinity range for α1B adrenoceptor (α1B adrenoceptors): nanomolar range |
| COc1ccc(CCN2CCN(c3ccccc3OC)CC2)cc1 [LDT 4] | – | – | – | – | 1.07e-08 | 8.81e-09 | 30.2 | 23.3 | – |
| CCCCCCCCN1CCN(c2ccccc2OC)CC1 [LDT 68] | −7.35 ± 0.2 a M | 3.8e-08 | −6.69 ± 0.10 | 173 | – | – | – | – | – |
| CCN1CCN(c2ccccc2)CC1 [LDT 39] | −6.36 ± 0.21 M | 3.74e-07 | −6.29 ± 0.10 | 425 | – | – | – | – | – |
| COc1ccccc1N1CCN(CCc2ccccc2)CC1 [LDT 2] | – | – | – | – | 1.91e-08 | 1.57e-08 | 63.1 | 48.7 | – |
| CCCCN1CCN(c2ccccc2OC)CC1 [LDT 64] | −6.84 ± 0.04 M | 1.24e-07 | −6.33 ± 0.16 | 393 | – | – | – | – | – |
| CCN1CCN(c2ccccc2OC)CC1 [LDT 62] | −6.51 ± 0.2 M | 2.61e-07 | −6.27 ± 0.05 | 448 | – | – | – | – | – |
| CCOc1ccccc1N1CCN(CC)CC1 [LDT 69] | −7.41 ± 0.25 a M | 3.3e-08 | −6.53 ± 0.11 | 185 | – | – | – | – | – |
| CCCCCCN1CCN(c2ccccc2OC)CC1 [LDT 66] | −7.29 ± 0.11 a M | 4.3e-08 | −6.51 ± 0.18 | 221 | – | – | – | – | – |
